Data on 1 compound can be found in US20080051454A1, “Compositions and methods for transient receptor potential vanilloid (TRPV) channel mediated treatments” (The Board of Trustees Operating Michigan State University, priority 2006, published 2008).

Experiment [1] concerns Wistar rats fed a normal-salt (NS) or high-salt (HS) diet for 10 days. Nature of the experiment: MAP and HR responses to i.v. bolus NADA with or without antagonists in conscious rats. The experiment is classed as in vivo, rat. The following applies: for prolonged depressor effect of NADA (decrease in MAP) after antagonist: NADA 4 mg/kg after CAPZ 3 mg/kg, CGRP8-37 infusion or SR141716A 3 mg/kg. The text has this:
In brief: Wistar rats were fed a normal (NS, 0.4%) or high (HS, 4%) sodium diet for 10 days, then artery and vein were cannulated for measurement of mean arterial pressure (MAP) or for injection of drugs and collection of plasma.
Animal Preparation: Male Wistar rats (7 weeks old, Charles River Laboratory, Wilmington, Mass.) were housed in the animal facility for 1 week before the experiment. Rats were grouped randomly and pair-fed a NS (0.4% of Na^+ by weight) or HS (4% of Na^+ by weight) diet for 10 days. The rat chow was purchased from Harlan Teklad Diets (Madison, Wis.). Drinking water was available ad libitum throughout the experiment. All protocols were in accordance with the National Institutes of Health Guidelines for the Care and Use of Laboratory Animals.
Surgical Preparation Rats were anesthetized with ketamine and xylazine (80 and 4 mg/kg intraperitoneally, respectively) for cannulation or with urethane (1.5 g/kg intraperitoneally) for capsaicin administration. The left jugular vein, carotid and femoral artery were cannulated under anesthesia for injection of drugs or monitoring of mean arterial pressure (MAP) and heart rate (HR).
Three hours after surgery, baseline MAP and its response to the above-mentioned drugs were obtained with the rats fully awake and unrestrained [Wang et al., Am J Physiol 2004; 287:H1868-H[874]. NADA was injected in increasing doses (1, 4, and 10 mg/kg intravenous bolus) in 3 subgroups of rats (each group for each dose). To determine the role of TRPV1 and CB 1 receptor in NADA-induced hypotension, NADA (4 mg/kg) was injected 10 minutes or 20 minutes after intravenous injection of CAPZ (3 mg/kg) or SR141716A (3 mg/kg), respectively.
To examine the effect of CGRP8-37 on NADA-induced hypotension, CGRP8-37 was intravenously administered at the rate of 1 mg/kg/min for 2 minutes followed by injection at the rate of 0.5 mg/kg/min for 15 minutes. NADA (4 mg/kg) was injected 1 minute after CGRPs-37 administration. The effectiveness of the dose and time frame for CGRP8-37 injection was verified by blockade of the hypotensive response to capsaicin (30 μg/kg) (n=5).

In experiment [2] the test system is male Wistar rats. Nature of the experiment: Depressor effect of 20-HETE analog DSR given IV, with or without antagonists. The experiment is classed as in vivo, rat. The following applies: DSR 1 mg/kg with CAPZ 3 mg/kg, RP67580 4 mg/kg or CGRP 8-37 3 mg/kg.
Experiment [3] concerns hearts of WT mice. The experiment can be described thus: Langendorff perfused heart, ischemia and reperfusion (I/R) with OLDA, wild type. More on the design: species or system mouse. The following applies: antagonist 1×10^−6 M. How it is done: The following measurements were made on the two types of heart tissue: left ventricular end-diastolic pressure (LVEDP), left ventricular developed pressure (LVDP), coronary flow (CF), and left ventricular (LV) peak positive rate of pressure change/rate of time change (+dP/dt) were evaluated after I/R.

For experiment [4], the system named is WT and TRPV1−/− hearts. Nature of the experiment: OLDA-induced CGRP and SP release from hearts (radioimmunoassay). More on the design: species or system mouse.
Experiment [5] deals with WT and TRPV1−/− hearts. Nature of the experiment: SP and CGRP release from hearts subjected to PC (radioimmunoassay). More on the design: species or system mouse. The following applies: CAPZ 10^−6 M; in WT but not TRPV1−/− hearts. Here is the method:
Additional WT and TRPV1−/−hearts were treated the same as that of the PC group except that CAPZ (10^−6 M) was added to the solution. In the normal control group, WT and TRPV1−/−hearts were treated the same as that of the PC group except no deprivation of oxygen and glucose. The samples were purified and analyzed by radioimmunoassay. The assay was performed as recommended by the supplier. Commercially available rat CGRP and SP radioimmunoassay kits (Peninsula Laboratories Inc.) were used for determination of SP and CGRP release which was normalized by the heart weight.

Experiment [6] concerns renal tissues. Nature of the experiment: Capsaicin-induced CGRP release from renal tissues. The following applies: capsazepine 10 mmol/l; all groups. Also noted: species or system rat. The text has this: N¼5,_P<0.05 versus vehicle, capsazepine plus capsaicin and capsazepine; †P<0.001 versus capsaicin of control rats with a normal sodium diet (Con-NS) and capsaicin of control rats with a high sodium diet (Con-HS). Vehicle; capsaicin; capsazepine and capsaicin; capsazepine.
To examine renal sensory nerve function, renal CGRP release after stimulation of the renal sensory nerves with capsaicin was examined.

SMILES strings stand for the structures.

Take `Oc1cc2c(cc1O)CN(C(=S)NCCc1ccc(Cl)cc1)CCC2` [CAPZ, N-[2-(4-Chlorophenyl)ethyl]-1,3,4,5-tetrahydro-7,8-dihydroxy-2H-2-benzazepine-2-carbothioamide]: the “effect of antagonist on NADA-induced depressor effect” value in experiment [1] (NADA 4 mg/kg) is listed as “abolished”. Besides, the “prolonged depressor effect of NADA (decrease in MAP) after antagonist” value in experiment [1] (HS diet) is given as 7±2 mmHg. The “prolonged depressor effect of NADA (decrease in MAP) after antagonist” value in experiment [1] (NS diet) came to 6±2 mmHg. In addition, the “DSR induced-depressor effect after antagonist” value in experiment [2] came out at 8.5±2.5 mmHg. In addition, in experiment [3], the “effect on protective effect of OLDA in WT hearts” value is “abolished”. For the same compound, the “effect on OLDA-increased CGRP and SP release in WT hearts” value in experiment [4] is given as “blocked”. Also, in experiment [5], the “CGRP release from hearts subjected to PC” value is “attenuated” and the “SP release from hearts subjected to PC” value was “attenuated”. In experiment [6], the “effect on capsaicin-stimulated CGRP release” value was “blocked”.
